Source: PMC11484510, “Antibacterial activity of structurally diverse natural prenylated isobavachalcone derivatives” (RSC Advances, 2024)
In brackets after ≈: the same amount, converted by molar mass. Entries after “also recorded” stand apart in the source; their conditions may differ. Like-named read-outs stand apart in the source and are kept apart here.

Tests used:
Assay type in all cases: cell-based
E. coli ATCC 25922 [1] = assay: MIC, broth microdilution (CLSI), Alamar blue; details: E. coli ATCC 25922, 24 hours at 37 °C, read-out: Minimum inhibitory concentration (MIC) E. coli
Source text: (§1) The bacterial strains S. aureus ATCC 29213, MRSA ATCC 15187, E. coli ATCC 25922, and P. aeruginosa ATCC 27853 were obtained from ATCC (American Type Culture Collection). Cation-adjusted Mueller–Hinton broth (MHB; Becton–Dickinson, Cockeysville, MD) was used to determine the minimum inhibitory concentration (MIC). Mueller–Hinton agar (MHA; Becton–Dickinson) was used for minimum bactericidal concentration (MBC) studies. Alamar blue (Himedia) was used to detect the MIC value.
(§2) The antibacterial activity of the compounds against S. aureus ATCC 29213, MRSA ATCC 15187, E. coli ATCC 25922, and P. aeruginosa ATCC 27853 was determined through a broth microdilution method according to the guidelines of the Clinical and Laboratory Standards Institute (CLSI).[50] […] Growth control and media control were employed along with 2% DMSO as vehicle control.
(§3) In a 96-well flat bottom plate, the test compounds were two-fold serially diluted in Mueller Hinton Broth (MHB). The final concentrations of the compounds ranged from 100 to 0.08 μM. 100 μL of standardized bacterial inoculum with turbidity equivalent to 0.5 McFarland standard (1.5 × 10^8 CFU mL^−1) was diluted 1 : 100 (1.5 × 10^6 CFU mL^−1) in Mueller Hinton Broth and inoculated in the plates.[51] The plates were incubated for 24 hours at 37 °C. After incubation, 10 μL of freshly prepared Alamar blue (Himedia) was added to each well of the plate, and plates were further incubated at 37 °C for 30 minutes. After incubation, the fluorescence was measured at excitation/emission of 540–570/580–610 nm. The percentage inhibition and viability were calculated for the controls, and the Gompertz curve was utilized to estimate the minimum inhibitory concentration.

P. aeruginosa ATCC 27853 [2] = assay: MIC, broth microdilution (CLSI), Alamar blue; details: P. aeruginosa ATCC 27853, 24 hours at 37 °C, read-out: Minimum inhibitory concentration (MIC) P. aeruginosa
Source text: as §1, §2, §3

S. aureus ATCC 29213 [3] = assay: MIC, broth microdilution (CLSI), Alamar blue; details: S. aureus ATCC 29213, 24 hours at 37 °C, read-out: Minimum inhibitory concentration (MIC) S. aureus
Source text: as §1, §2, §3

E. coli ATCC 25922 [4] = assay: MBC, plating on MHA; details: Escherichia coli, ATCC25922; more than 99.9% of the cells killed; read-out: Minimum bactericidal concentration (MBC) E. coli
Source text: as §1
(§4) MBC is defined as the lowest concentration of the compound at which more than 99.9% of the cells were killed compared with the growth control. The minimum compound concentration at which no visible bacterial growth was observed was taken as the Minimum Bactericidal Concentration (MBC).[50]

P. aeruginosa ATCC 27853 [5] = assay: MBC, plating on MHA; details: Pseudomonas aeruginosa, ATCC27853; more than 99.9% of the cells killed; read-out: Minimum bactericidal concentration (MBC) P. aeruginosa
Source text: as §1, §4

S. aureus ATCC 29213 [6] = assay: MBC, plating on MHA; details: Staphylococcus aureus, ATCC29213; more than 99.9% of the cells killed; read-out: Minimum bactericidal concentration (MBC) S. aureus
Source text: as §1, §4

S. aureus ATCC 29213 [7] = assay: Time-kill assay
S. aureus = assay: Combinational study (checkerboard microdilution) with standard drugs; details: S. aureus
Procedure: The Fractional Inhibitory Concentration Index (FICI) was calculated for each test compound and reference drug to find the combinational effect.
In a 96-well flat bottom plate, the reference drug with 4× MIC was serially diluted horizontally. The test compounds with 4× MIC were serially diluted two-fold outside the plate in 1.5 mL Eppendorf's using Mueller Hinton Broth (MHB). These two serially diluted compounds were combined to create drug-compound combinations in the plate. The reference drug (horizontally) and tested compounds (vertically) alone were serially diluted for MIC determination. 100 μL of the standardized bacterial inoculum with a turbidity equivalent to a 0.5 McFarland standard were diluted 1 : 100 in Mueller Hinton Broth and inoculated in the plates. The plates were incubated for 24 hours at 37 °C. After incubation, 10 μL of freshly prepared Alamar blue (Himedia) was added to each well of the plate, and the plates were further incubated at 37 °C for 30 minutes. After incubation, the plates were visually observed. […] The FICI was calculated using the formula FICI = FIC of compound + FIC of drug. The calculation followed is FICI (CA/(MICA)) + (CB/(MICB)), where CA is the MIC of the compound in combination, CB is the MIC of the drug in combination, and MICA and MICB are the MIC values of individual compounds and drugs, respectively. The range selection followed the interpretation criteria. The FICI range of 0.5 to 4 indicates indifference, ≤ or =0.5 indicates synergy and >4 indicates antagonism.[57]

## CC(C)=CCc1c(O)ccc2c1O/C(=C\c1ccc(O)cc1)C2=O [IBC-3, (Z)-6-hydroxy-2-(4-hydroxybenzylidene)-7-(3-methylbut-2-en-1-yl)benzofuran-3(2H)-one]
E. coli ATCC 25922 [1]
  MIC: 23 µM (≈ 7.41 µg/mL)
E. coli ATCC 25922 [1]; Escherichia coli, ATCC25922
  MIC: 23 µM (≈ 7.41 µg/mL)
P. aeruginosa ATCC 27853 [2]
  MIC: 24 µM (≈ 7.74 µg/mL)
P. aeruginosa ATCC 27853 [2]; Pseudomonas aeruginosa, ATCC27853, 24 h
  MIC: 24 µM (≈ 7.74 µg/mL)
S. aureus ATCC 29213 [3]
  MIC: 10 µM (≈ 3.22 µg/mL)
S. aureus ATCC 29213 [3]; Staphylococcus aureus, ATCC29213
  MIC: 10 µM (≈ 3.22 µg/mL)
E. coli ATCC 25922 [4]
  MBC: 25 µM (≈ 8.06 µg/mL)
P. aeruginosa ATCC 27853 [5]
  MBC: 100 µM (≈ 32.2 µg/mL)
S. aureus ATCC 29213 [6]
  MBC: 25 µM (≈ 8.06 µg/mL)
S. aureus ATCC 29213 [7]; 2× MIC and 4× MIC, with increasing time (up to 24 h)
  CFU count of S. aureus ATCC 29213 in time-kill study: below the detection limit
S. aureus ATCC 29213 [7]; MIC, 2× MIC, 4× MIC, 1 h to 24 h, 37 °C
  Time-kill profile: concentration-dependent killing effect; also recorded: concentration and time-dependent killing effects
S. aureus; MIC of the compound in combination with ciprofloxacin
  MIC combination (compound): 5 µM
S. aureus; MIC of the compound in combination with vancomycin
  MIC combination (compound): 5 µM
S. aureus; Staphylococcus aureus, checkerboard, substance alone, read-out: MIC alone
  MIC: 10 µM
S. aureus; compound with ciprofloxacin
  Outcome of combination: Indifference (The FICI range of 0.5 to 4 indicates indifference)
  ∑ FICI: 1
S. aureus; compound with vancomycin
  ∑ FICI: 0.5
